The record followed here is US20230339915A1 (Vertex Pharmaceuticals Incorporated, priority 2020, published 2023).

The target of experiment [1] is NL20 human bronchial epithelial cells expressing human Z-AAT (Homo sapiens (Human), UniProt P01009, E366K). Put plainly: AAT Function Assay (MSD Assay NL20-SI Cell Line). It is filed as cell-based. Particulars: functionally active AAT (AAT-hNE complex, MSD) in supernatant of NL20 cells expressing human Z-AAT; read-out: NL20 Functional EC50. The protocol: A. AAT Function Assay (MSD Assay NL20-SI Cell Line)
NL20 human bronchial epithelial cells expressing human Z-AAT, sequence (P01009 25-418 E366K limits assumed): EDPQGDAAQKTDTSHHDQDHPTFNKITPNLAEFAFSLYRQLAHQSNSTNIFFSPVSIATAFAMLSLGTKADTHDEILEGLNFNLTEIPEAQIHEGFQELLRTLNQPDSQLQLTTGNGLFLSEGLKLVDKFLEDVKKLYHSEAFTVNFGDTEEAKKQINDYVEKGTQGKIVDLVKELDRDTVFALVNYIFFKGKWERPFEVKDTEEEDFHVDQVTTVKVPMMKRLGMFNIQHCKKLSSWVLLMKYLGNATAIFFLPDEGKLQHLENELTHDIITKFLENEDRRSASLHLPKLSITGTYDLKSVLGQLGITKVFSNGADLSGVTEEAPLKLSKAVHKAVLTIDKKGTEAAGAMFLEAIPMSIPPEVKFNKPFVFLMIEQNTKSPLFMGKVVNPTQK
Alpha-1 antitrypsin (AAT) is a SERpIN (serine protease inhibitor) that inactivates enzymes by binding to them covalently. This assay measured the amount of functionally active AAT in a sample in the presence of the disclosed Compounds 1-227 by determining the ability of AAT to form an irreversible complex with human neutrophil Elastase (hNE). In practice, the sample (cell supernatant, blood sample, or other) was incubated with excess hNE to allow AAT-Elastase complex to be formed with all functional AAT in the sample. This complex was then captured to a microplate coated with an anti-AAT antibody. The complex captured to the plate was detected with a labeled anti-Elastase antibody and quantitated using a set of AAT standards spanning the concentration range present in the sample. Meso Scale Discovery (MSD) plate reader, Sulfo-tag labeling, and microplates were used to provide high sensitivity and wide dynamic range.
Instrument(S): • Meso Sector S600 • Bravo • Washer dispenser • Multidrop Combi
Day 1 Cell Culture • 1. Harvest NL20 human bronchial epithelial cells expressing human Z-AAT in OptiMEM™ containing Pen/Strep (P/S) • 2. Seed at 16,000 cells/well in 30 μL (384 well plate) • 3. Centrifuge plates briefly up to speed (1200 rpm) and place into 37° C. incubator overnight
Day 2: Compound Addition and Coating Plates with Capture Antibody
Compound Addition: • 1. Dispense 40 μL of OptiMEM™ (P/S) with doxycycline (1:1000 stock=0.1 μM final) to each well of the compound plate using a multidrop Combi in hood • 2. Remove cell plate from incubator, flip/blot and take immediately to Bravo to transfer compounds • 3. Return plates to incubator overnight
Coat MSD Plates • 1. Dilute capture antibody (Polyclonal Goat anti-AAT) to 5 μg/mL (1:200) in PBS (no BSA). • 2. Dispense 25 μL of diluted capture antibody into all wells of MSD 384-well High Bind plate using the Multidrop equipped with a standard cassette. • 3. Incubate overnight at 4° C.
Prepare Blocker A (BSA) Solutions • 1. Prepare solution of 5% MSD Blocker A (BSA) following the manufacturer's instructions. • 2. Further dilute the 5% MSD Blocker A in PBS to 1% (Blocker A) as needed.
Block Plates • 1. Wash plate 1× with 50 μL Wash buffer (PBS+0.5% Tween 20), and adds 35 μL 5% Block A buffer to block non-specific binding on washer dispenser • 2. Rotate plates on shaker for 1 hour at 600 rpm
Prepare M-AA T Standards • 1. Dilute M-AAT stock to 1.6 μg/mL in 1% BSA Blocker A (Stock in −70° C.); then prepare 12×1:2 serial dilutions in 1% Blocker A • 2. The top starting final concentration on MSD plate is 320 ng/mL. These dilutions correspond to a final concentration of 320, 160, 80, 40, 20, 10, 5, 2.5, 1.25, 0.625, 0.312, 0.156 ng/mL.
Dilution Plate • 1. Add 80 μL of 1% Assay buffer to all wells except columns 1/24 (standards) with Multidrop Combi • 2. Add diluted standards to columns 1 and 24 • 3. Centrifuge dilution plates 1200 rpm briefly
Cell Plate • 1. Aspirate columns which will have the standards from the cell plates in the hood using 16-pin aspirator
Prepare Human Neutrophil Elastase (hNE) • 1. Prepare 1 μg/mL Human Neutrophil Elastase by diluting in 1% Blocker A. • a. Small 100 μg vial—add 1 mL PBS (100 μg/mL) • i. This can then be diluted 1:100 in 1% Assay Buffer for a final 1 μg/mL concentration
MSD—add hNE (20 μL/well) • 1. After the MSD plate has blocked for at least 1 hour, wash plate 1× with 50 μL Wash buffer (PBS+0.5% Tween 20) and then add 20 μL hNE to each well
Bravo—Cell Plate—Dilution Plate—MSD Plate
Using the Bravo aspirate 10 μL from the cell plate, transfer to the dilution plate (9-fold dilution) • 1. Mix 25 μL 3×, then aspirate 5 μL, transfer to MSD plate (5-fold dilution) • 2. Mix 10 μL 3×. Total dilution is 45 fold. • 3. Shake plates at 600 rpm for 1.5 hours
Add Functional Detection hNE Antibody • 1. Wash plate 1× with wash buffer • 2. […]

In experiment [2] the target is purified Z-AAT protein from human plasma (Homo sapiens (Human), UniProt P01009, E366K). Put plainly: Biochemical Assay (Z-AAT Elastase Activity Assay). The settings on record: purified Z-AAT pre-incubated with compound 1 hour, then human neutrophil elastase and fluorescent substrate. The text has this: B. Biochemical Assay (Z-AAT Elastase Activity Assay)
purified Z-AAT protein from human plasma, sequence (P01009 25-418 E366K limits assumed): as above
This assay measured the modulation of Compounds 1-227 on Z-AAT SERpIN activity using purified Z-AAT protein and purified human neutrophil elastase (hNE). Normally, when active monomeric Z-AAT encounters a protease such as trypsin or elastase, it forms a 1:1 covalent “suicide” complex in which both the AAT and protease are irreversibly inactivated. However, compounds binding to Z-AAT can lead to a decrease in SERpIN activity. In such cases, when a protease encounters compound-bound Z-AAT, the protease cleaves and inactivates Z-AAT without itself being inactivated.
Reagents • PBS buffer (media prep)+0.01% BRIJ35 detergent (Calbiochem catalog #203728) Opti-MEM media (Fisher 11058-021) • Human neutrophil elastase (hNE, Athens Research #16-14-051200) • 3.4 μM stock (0.1 mg/mL) prepared in 50 mM Na Acetate, pH 5.5, 150 mM NaCl, stored at −80° C. • Elastase substrate V (ES V, fluorescent peptide substrate MeOSuc-Ala-Ala-Pro-Val-AMC, Calbiochem catalog #324740) • 20 mM stock in DMSO, stored at −20° C. • Purified Z-AAT protein from human plasma; • 12.9 μM (0.67 mg/mL) Z-AAT Vertex Cambridge Sample 4942, from patient • #061-SSN, stored at −80 C
Plates • Corning 4511 (384 well black low volume)
Instruments • PerkinElmer® EnVision™
Pre-Incubation of Z-AAT with Compounds • 1. 7.5 μL of Z-AAT (20 nM) was incubated with compounds 1-227 in a GCA plate for 1 hour at room temperature
Addition of hNE • 1. 7.5 ul of HNE solution (3 nM in PBS+0.01% BRIJ35) added into GCA plate • 2. Incubate plate for 30 minutes to allow Z-AAT/HNE suicide complex formation.
Addition of Substrate and Read Plate on PE Envision • 1. 7.5 μL of substrate (300 μM solution of elastase substrate (ES V) in PBS+0.01% BRIJ35) dispensed per well into GCA plate • 2. Immediately read on Envision.

SMILES strings stand for the structures.

As to `Cc1cc(-n2c(C3CCOCC3)c(C[C@H]3CC[C@H](C(=O)O)CC3)c3cc(O)ccc32)ccc1F` [Compound 5], the EC50 in experiment [1] is > 2000 nM. For the same compound, in experiment [2], the IC50 is > 30000 nM.
In the case of `Cc1cc(-n2c(C(C)C)c(C3CC(C(=O)O)C3)c3cc(O)ccc32)ccc1F` (stereo not shown) [Compound 6], in experiment [1], the EC50 was > 2000 nM. In addition, the IC50 in experiment [2] was > 30000 nM.
The corresponding values for `Cc1cc(-n2c(C3CCOCC3)c(C[C@H]3C[C@H](C(=O)O)C3)c3cc(O)ccc32)ccc1F` [Compound 7] are > 2000 nM and > 30000 nM.
The corresponding values for `Cc1cc(-n2c(C3CCOCC3)c(C[C@H]3C[C@@H](C(=O)O)C3)c3cc(O)ccc32)ccc1F` [Compound 8] are 500 to 2000 nM and > 30000 nM.
On the same counts, the results for `Cc1cc(-n2c(C3CCOCC3)c([C@H]3C[C@@](C(=O)O)(C(F)(F)F)C3)c3cc(O)ccc32)ccc1F` [Compound 9] are 500 to 2000 nM and > 5000 nM.
`Cc1cc(-n2c(C3CCOCC3)c(CCC(F)(F)C(=O)O)c3cc(O)ccc32)ccc1F` [Compound 10]: the EC50 in experiment [1] is > 2000 nM. The IC50 in experiment [2] was > 30000 nM.
The corresponding values for `Cc1cc(-n2c(C3CCOCC3)c([C@H]3CC4(C[C@H](C(=O)O)C4)C3)c3cc(O)ccc32)ccc1F` (stereo partly shown) [Compound 11] are < 500 nM and > 30000 nM.
On the same counts, the results for `Cc1cc(-n2c(C3CCOCC3)c([C@H]3CC4(C[C@H](C(=O)O)C4)C3)c3cc(O)ccc32)ccc1F` (stereo partly shown) [Compound 12] are < 500 nM and > 5000 nM.
On the same counts, the results for `Cc1cc(-n2c(C3CCOCC3)c(CC3(C(=O)O)CCC3)c3cc(O)ccc32)ccc1F` [Compound 13] are > 2000 nM and > 30000 nM.
As for `Cc1cc(-n2c(C3CCOCC3)c(CCC(C)(C)C(=O)O)c3cc(O)ccc32)ccc1F` [Compound 14], in experiment [1], the EC50 lay in the range of 500 to 2000 nM. Moreover, the IC50 in experiment [2] was > 30000 nM.
Take `CO[C@]1(C(=O)O)C[C@H](c2c(C3CCOCC3)n(-c3ccc(F)c(C)c3)c3ccc(O)cc32)C1` [Compound 15]: in experiment [1], the EC50 was > 2000 nM. Also, the IC50 in experiment [2] was > 30000 nM.
On the same counts, the results for `CO[C@]1(C(=O)O)C[C@@H](c2c(C3CCOCC3)n(-c3ccc(F)c(C)c3)c3ccc(O)cc32)C1` [Compound 16] are > 2000 nM and > 30000 nM.
`Cc1cc(-n2c(C3CCOCC3)c([C@H]3C[C@H](C(=O)O)C3)c3cc(O)ccc32)ccc1F` [Compound 20]: the EC50 in experiment [1] is > 2000 nM. Besides, in experiment [2], the half-maximal inhibitory concentration (IC50) was > 30000 nM.
Turning to `Cc1cc(-n2c(C3CCOCC3)c([C@H]3C[C@@H](C(=O)O)C3)c3cc(O)ccc32)ccc1F` [Compound 21], in experiment [1], the EC50 is > 2000 nM. Also, the IC50 in experiment [2] is > 30000 nM.
On the same counts, the results for `Cc1cc(-n2c(C(C)C)c([C@H]3C[C@](C)(C(=O)O)C3)c3c(F)c(O)c(F)cc32)ccc1F` [Compound 22] are 500 to 2000 nM and 2000 to 5000 nM.
For the compound `Cc1cc(-n2c(C(C)C)c([C@H]3C[C@@](C)(C(=O)O)C3)c3c(F)c(O)c(F)cc32)ccc1F` [Compound 23], the EC50 in experiment [1] lay within 500 to 2000 nM. In addition, the half-maximal inhibitory concentration (IC50) in experiment [2] was > 30000 nM.
On the same counts, the results for `O=C(O)[C@H]1CC[C@@H](c2c(C3CCOCC3)n(-c3ccc(F)c(Cl)c3)c3ccc(O)cc32)CC1` [Compound 24] are > 2000 nM and > 30000 nM.
The corresponding values for `Cc1cc(-n2c(C3CCOCC3)c(CC3CC(C(=O)O)C3)c3cc(O)ccc32)ccc1F` (stereo not shown) [Compound 25] are 500 to 2000 nM and > 30000 nM.
The corresponding values for `Cc1cc(-n2c(C(C)C)c(CC(C)C(=O)O)c3cc(O)ccc32)ccc1F` (stereo not shown) [Compound 26] are > 2000 nM and > 30000 nM.
Consider `C[C@]1(C(=O)O)C[C@H](c2c(C3CCOCC3)n(-c3ccc(F)c(Cl)c3)c3ccc(O)cc32)C1` [Compound 27], for which, in experiment [1], the EC50 was 500 to 2000 nM. Besides, in experiment [2], the IC50 is > 5000 nM.
For `C[C@]1(C(=O)O)C[C@@H](c2c(C3CCOCC3)n(-c3ccc(F)c(Cl)c3)c3ccc(O)cc32)C1` [Compound 28], the EC50 in experiment [1] was > 2000 nM. Besides, the IC50 in experiment [2] was > 30000 nM.
The corresponding values for `CC(C)(CCc1c(C2CCOCC2)n(-c2ccc(F)c(Cl)c2)c2ccc(O)cc12)C(=O)O` [Compound 29] are 500 to 2000 nM and > 30000 nM.
On to `CC(C)(CCc1c(C2CCOCC2)n(-c2ccc(F)cc2)c2ccc(O)cc12)C(=O)O` [Compound 30], for which, in experiment [1], the concentration for a half-maximal effect (EC50) fell in the range of 500 to 2000 nM. In experiment [2], the IC50 was > 30000 nM.
Take `O=C(O)C1CC2(C1)CC(c1c(C3CCOCC3)n(-c3ccc(F)c(Cl)c3)c3ccc(O)cc13)C2` (stereo not shown) [Compound 31]: in experiment [1], the EC50 is < 500 nM. Further, the IC50 in experiment [2] was > 5000 nM.
The corresponding values for `O=C(O)[C@H]1CC2(C1)C[C@H](c1c(C3CCOCC3)n(-c3ccc(F)c(Cl)c3)c3ccc(O)cc31)C2` (stereo partly shown) [Compound 32] are < 500 nM and > 5000 nM.
On the same counts, the results for `O=C(O)[C@H]1CC2(C1)C[C@H](c1c(C3CCOCC3)n(-c3ccc(F)c(Cl)c3)c3ccc(O)cc31)C2` (stereo partly shown) [Compound 33] are < 500 nM and > 5000 nM.
On to `O=C(O)[C@H]1C[C@H](Cc2c(C3CCOCC3)n(-c3ccc(F)c(Cl)c3)c3ccc(O)cc23)C1` [Compound 34], for which the EC50 in experiment [1] was > 2000 nM. The IC50 in experiment [2] was > 30000 nM.
The corresponding values for `O=C(O)[C@H]1C[C@@H](Cc2c(C3CCOCC3)n(-c3ccc(F)cc3)c3ccc(O)cc23)C1` [Compound 35] are > 2000 nM and > 30000 nM.
Regarding `O=C(O)[C@H]1C[C@H](Cc2c(C3CCOCC3)n(-c3ccc(F)cc3)c3ccc(O)cc23)C1` [Compound 36], the EC50 in experiment [1] is > 2000 nM. The IC50 in experiment [2] is > 30000 nM.
